Results on 7 molecules are retold here after patent EP0308913A2, “2,6-Methanopyrrolo-3-benzazocines, a process and intermediates for their preparation and their use as medicaments” (HOECHST-ROUSSEL PHARMACEUTICALS INCORPORATED, priority 1987, dated 1989).

This assay deals with mice. Kind of assay: modified phenyl-p-quinone writhing assay in mice (analgesia). The note with it: Mus musculus, sc; male CD-1 mice; test compound s.c. at peak time before phenyl-p-quinone; calculated ED50 by linear regression; read-out: Analgesic Activity (Inhibition of Writhing ED5Ø (mg/kg, s.c.)) (converted). Format: in vivo. On the procedure:
The 2,6-methanopyrrolo-3-benzazocines of this invention are useful as analgetics due to their ability to alleviate pain in mammals. The procedure employed to determine analgetic utility is a modification of the phenyl-p-quinone writhing assay in mice, a standard assay for analgesia [Proc. Soc. Exptl. Bio. Med., 95 729 (1957)]. In the modified procedure phenyl-p-benzoquinone (Eastman, 12.5 mg) is dissolved in 5 ml of 95% ethanol and the solution is diluted to a total volume of 100 ml with distilled water. The solution is administered to the subject mice […] at a dose of 10 ml per kg of body weight. A characteristic "writh", an inward rotation of one or more feet with twisting and turning of the trunk, drawing in of the abdominal wall, lordosis and arching of the back, is produced.
A total of 28 male mice (Charles River, CD-1), weighing 18 to 30 grams, are employed for a time response. The subject animals receive food and water ad libitum. Test compounds are dissolved in distilled water, or suspended in distilled water containing one drop of a suitable surfactant, such as Tween-80.
Four groups of five animals (20 animals) are given the test compound subcutaneously at 15, 30, 45 and 60 minutes prior to administration of the phenyl-p-quinone. Four control groups of 2 animals (8 animals) receive an equal volume of the vehicle. After the administration of the phenyl-p-quinone, the mice are placed separately in one liter beakers, and after five minutes, are observed for ten minutes. The number of writhes for each animal is recorded. The following formula is used to compute the percent inhibition: [formula]
The time period with the greatest percent of inhibition is considered the peak time. A dose range determination is generally reserved for those compounds which inhibit writhing by greater than 65-70% at the screening dose.
A dose range determination is run in the same manner as the time response except 10 animals per group are tested at the peak time of test drug activity. Fifty animals, 4 test drug groups, and a vehicle control are employed. Animals are dosed and tested in a randomized manner. A calculated ED₅₀, i.e., the dose at which 50% inhibition of writhing is produced, is determined by a computer linear regression analysis. The calculated subcutaneous (s.c.) dose effecting an approximately 50% inhibition of writhing (ED₅₀) in mice produced in this assay is as follows: […]

For `CC1C2Cc3cc4c(cc3C1(C)CCN2C)NCC4` (stereo not shown) [1,2,3,4,5,6,9,10-Octahydro-3,6,12-trimethyl-2,6-methano-8H-pyrrolo[2,3-i][3]benzazocine], the ED50 is 35.5 mg/kg. To `CC1C2Cc3cc4cc[nH]c4cc3C1(C)CCN2C` (stereo not shown) [1,2,3,4,5,6-Hexahydro-3,6,12-trimethyl-2,6-methano-8H-pyrrolo[2,3-i][3]benzazocine] belongs 29.5 mg/kg; to `CC1C2Cc3c(ccc4[nH]ccc34)C1(C)CCN2C` (stereo not shown) [1,2,3,4,5,6-Hexahydro-3,6,12-trimethyl-2,6-methano-9H-pyrrolo[2,3-j][3]benzazocine], 30.4 mg/kg; to `CC1C2Cc3c(ccc4c3C(=O)C(=O)N4)C1(C)CCN2C` (stereo not shown) [1,2,3,4,5,6-Hexahydro-3,6,12-trimethyl-2,6-methanopyrrolo[2,3-j][3]benzazocine-10,11(9H)-dione], 24.3 mg/kg. To `CC1C2Cc3ccc4[nH]ccc4c3C1(C)CCN2C` (stereo not shown) [1,2,3,4,5,6-hexahydro-3,6,12-trimethyl-2,6-methano-9H-pyrrolo[3,2-h][3]benzazocine] belongs 0.6 mg/kg. To `CC1C2Cc3cc4[nH]ccc4cc3C1(C)CCN2C` (stereo not shown) [1,2,3,4,5,6-hexahydro-3,6,12-trimethyl-2,6-methano-10H-pyrrolo[3,2-i][3]benzazocine] belongs 1.8 mg/kg; to `CC(C)=CCN1CCC2(C)c3cc(O)ccc3CC1C2C` (stereo not shown) [pentazocine, reference compound], 1.3 mg/kg.
